3 molecules from patent US20260200923A1, “HETEROCYCLIC COMPOUNDS TARGETING THE NUDT5 PROTEIN” (Oxford University Innovation Limited, priority 2022, published 2026) can be followed below.

As usually defined, the IC50 is the concentration that inhibits the measured activity by half. Low values mean higher potency, high ones lower potency.

For one assay, the target named is T1, luciferase-tagged NUDT5 (Homo sapiens, UniProt Q9UKK9).
T1 construct: expressed in transfected cells; host or cells: HEK293T
Put plainly: NanoBRET target engagement assay. The class given is cell-based. Conditions: live cells, 2 h. As for the experimental part:
For NanoBRET target engagement assay, intracellular TE Nano-Glo substrate/inhibitor (N2161, Promega) was used according to the manufacturer's instruction. In brief, 200,000 HEK293T cells/ml was seeded in a T-75 flask. N-terminal NanoLuciferse NUDT5 was reverse transfected into the cells using Fugene HD transfection reagent (E2312, Promega). After 24 h the transfected HEK293 (200,000 cells/ml) were replated onto a 384-well plate containing compounds. 2.5 nM NU008116a was used as the final tracer concentration. After 2 h, NanoLuc substrate and inhibitor was added into each well and the signals were measured by PHERAstar Microplate Reader.
Compounds were dispensed in the 384-well plates by using Echo Acoustic Dispenser.
For orientation: In BRET a luciferase serves as donor, and the signal depends on an acceptor being close.

The next assay concerns MTHFD1^K56R cells. The assay is described as follows: growth of MTHFD1^K56R cells in adenosine-containing media. The class given is cell-based. Here is the method: HAP1 (KBM7-derived, Horizon Discovery, C859), and HAP1 MTHFD1^KO, MTHFD1^K56R, and MTHFD1^K386E cell lines were cultured in Iscove's Modified Dulbecco's Medium (IMDM, Sigma), supplemented with 10% Fetal Bovine Serum (FBS, Sigma) and 1% Penicillin/Streptomycin (P/S, Sigma).
MTHFD1^KO cells in dialyzed FBS media were treated with a single nucleotide or folic acid metabolite for 72 hours. Cells were then stained with Hoechst, imaged, and counted using an Operetta (Perkin Elmer). For the AMPK activator studies, cells were stained with Hoechst, imaged, and counted using an Opera (Perkin Elmer). Similarly, MTHFD1^K56R cells in dialyzed FBS media were treated with adenosine for 72 hours. Cells were then stained with Hoechst, imaged, and counted using an Operetta (Perkin Elmer).

The subject of a further assay is HAP-1 cells. Put plainly: 6-thioguanine assay (CellTiter-Glo viability). The conditions noted are these: 0.2 μg/ml 6-thioguanine, 72 h; HAP1 (and NB4, FIG. 11). The assay is classed as cell-based. As for the experimental part: NB-4 and HAP1 cells (1000 cells/well in 40 uL) were seeded onto a 384-well plate containing compounds. DMSO or 0.2 μg/ml 6-thioguanine (A4882, Sigma-Aldrich) was added into respective wells. After 72 h incubation cell viability was measured by using CellTiter-Glo 2.0 Assay (G9242, Promega). Compounds in the 384-well plates were prepared by using Echo Acoustic Dispenser.
On the technique in general: In ATP-based viability assays light output follows the ATP content of the culture.

For another assay, the system named is MTHFD1^K386E cells. The assay is described as follows: growth of MTHFD1^K386E cells with adenosine. The assay is classed as cell-based. Conditions: synthetase mutant cells. As for the experimental part: HAP1 (KBM7-derived, Horizon Discovery, […]), and HAP1 MTHFD1^KO, MTHFD1^[…], and MTHFD1^[…] cell lines were cultured in Iscove's Modified Dulbecco's Medium (IMDM, Sigma), supplemented with 10% Fetal Bovine Serum (FBS, Sigma) and 1% Penicillin/Streptomycin (P/S, Sigma).

A further assay has as its target NUDT5 (Homo sapiens, UniProt Q9UKK9). Put plainly: AMP-Glo catalytic assay, NUDT5. The assay is classed as biochemical. Conditions: 2 nM NUDT5, ADPr substrate, 20 minutes, mean±SD. Here is the method:
(§1) To identify alternative X groups, a screening exercise was performed. […] Inhibition activities of the compounds were determined using AMP-Glo system (Promega). The compounds were diluted from 50 μM to 0 μM in a final reaction containing 20 mM Hepes, 100 mM NaCl, 0.5 mM TCEP, 1 mM MgCl2 and 0.1% BSA, pH 7.4. The reactions were performed in 1536 well plate in […] reaction volume with 2 nM of NUDT5 and NUDT14, and […] of ADPr as the substrate. The final DMSO concentration was 0.5% for all reactions. NUDT5 reactions were incubated for 20 minutes while NUDT14 reactions were carried out for 1 hour at room temperature. […] The reactions were further incubated with the 4 μl of Detection solution for 1 hour at room temperature. Luminescence signals were then measured in PHERAstar FSX plate reader. Experiments were done in triplicate sets and data were analysed by GraphPad Prism 9. Data are represented as the mean±SD of three biological experiments: […]

Another assay deals with T2, NUDT14 (Homo sapiens, UniProt O95848).
T2 sequence (O95848 1-222): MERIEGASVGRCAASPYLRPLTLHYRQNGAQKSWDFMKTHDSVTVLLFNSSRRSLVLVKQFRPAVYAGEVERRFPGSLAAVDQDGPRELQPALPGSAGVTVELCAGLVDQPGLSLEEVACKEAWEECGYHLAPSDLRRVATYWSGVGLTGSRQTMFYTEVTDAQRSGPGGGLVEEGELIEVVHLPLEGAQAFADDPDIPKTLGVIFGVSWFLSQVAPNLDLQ
Put plainly: AMP-Glo catalytic assay, NUDT14. The class given is biochemical. As for the experimental part: as §1

Consider `CN1C(=O)CCC(N2C(=O)c3ccc(N4CCN(CC5CCN(C(=O)N6CCN(c7nc8c(c(=O)n(C)c(=O)n8C)n7Cc7nnc(-c8ccc(Cl)c(Cl)c8)o7)CC6)CC5)CC4)cc3C2=O)C1=O` (stereo not shown) [dNUDT5nc, 7-((5-(3,4-dichlorophenyl)-1,3,4-oxadiazol-2-yl)methyl)-1,3-dimethyl-8-(4-(4-((4-(2-(1-methyl-2,6-dioxopiperidin-3-yl)-1,3-dioxoisoindolin-5-yl)piperazin-1-yl)methyl)piperidine-1-carbonyl)piperazin-1-yl)-3,7-dihydro-1H-purine-2,6-dione], for which, at luciferase-tagged NUDT5, the “NUDT5 engagement / recruitment” value is given as “engaged their cognate target NUDT5 in live cells”. For the same molecule, the “effect on adenosine toxicity / viability” value in the assay on MTHFD1^K56R cells (adenosine-containing media, 72 h) was “did not cause any effects”. Further, the “rescue of 6-TG toxicity” value with HAP-1 cells is recorded as “neither the negative control nor TH5427 gave any significant effects”.
With `Nc1ncnc2c1ncn2[C@@H]1O[C@H](CO)[C@@H](O)[C@H]1O` [adenosine], the “effect of addition on proliferation” value in the assay with MTHFD1^K56R cells (cyclohydrolase mutant cells, 50 μM adenosine) is given as “caused a strong antiproliferative response”. In addition, the “effect of addition on growth” value in the assay with MTHFD1^K386E cells was “enhanced the growth”.
Consider `C=CC(=O)N1CCC[C@@H](n2nc(-c3ccc(Oc4ccccc4)cc3)c3c(N)ncnc32)C1` [Ibrutinib, reference compound], for which the half-inhibitory concentration (IC50) at NUDT5 was found to be 375 ± 12 nM; at NUDT14, 974 ± 26 nM.
